Patent US20260262643A1, “HERBICIDAL BENZOXAZINES” (FMC CORPORATION, priority 2022, published 2026)
Read-outs that look alike come from different tables or passages of the source.

Tests used:
pigweed, palmer [1] = assay: Test A preemergence; type: in vivo, Amaranthus palmeri; settings: Amaranthus palmeri, pre-emergence, 240 h, read-out: Plant response rating, Pigweed, Palmer; for pest or weed control at 125 g/ha: 125 g ai/ha; for pest or weed control at 500 g/ha: 500 g ai/ha
In short: (§1)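 Loam/sand soil; pre-em directed soil spray at planting, post-em spray at 1–2 leaf (2–10 cm). Compound in non-phytotoxic solvent + surfactant. Greenhouse 10 d; visual injury vs untreated, 0 = no effect, 100 = complete control.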

ragweed [2] = assay: Test A preemergence; type: in vivo, Ambrosia artemisiifolia; settings: Ambrosia artemisiifolia, pre-emergence, 240 h, read-out: Plant response rating, Ragweed; for pest or weed control at 125 g/ha: 125 g ai/ha; for pest or weed control at 500 g/ha: 500 g ai/ha
In short: as §1

ryegrass, Italian = assay: Test A preemergence; type: in vivo, Lolium multiflorum; settings: Lolium multiflorum, pre-emergence, 240 h, read-out: Plant response rating, Ryegrass, Italian; for pest or weed control at 125 g/ha: 125 g ai/ha; for pest or weed control at 500 g/ha: 500 g ai/ha
In short: as §1

soybean = assay: Test A preemergence; type: in vivo, Glycine max; settings: Glycine max, pre-emergence, 240 h, read-out: Plant response rating, Soybean; for plant injury at 125 g/ha: 125 g ai/ha; for plant injury at 500 g/ha: 500 g ai/ha
In short: as §1

blackgrass [3] = assay: Test A postemergence; type: in vivo, Alopecurus myosuroides; settings: Alopecurus myosuroides, post-emergence, 240 h; for pest or weed control at 125 g/ha: 125 g ai/ha; for pest or weed control at 500 g/ha: 500 g ai/ha
In short: as §1

corn = assay: Test A postemergence; type: in vivo, Zea mays; settings: Zea mays, post-emergence, 240 h, postemergence, 10 days, 0 to 100 scale (0 no effect, 100 complete control); for Corn plant response rating (crop injury, 0 = no effect, 100 = complete kill) at 500 g/ha: 500 g ai/ha; for plant injury at 125 g/ha: read-out: Corn plant response rating
In short: as §1

foxtail, giant = assay: Test A postemergence; type: in vivo, Setaria faberi; settings: Setaria faberi, post-emergence, 240 h, postemergence, 10 days, 0 to 100 scale (0 no effect, 100 complete control); for pest or weed control at 125 g/ha: 125 g ai/ha; for pest or weed control at 500 g/ha: 500 g ai/ha
In short: as §1

goosegrass = assay: Test A postemergence; type: in vivo, Eleusine indica; settings: Eleusine indica, post-emergence, 240 h, postemergence, 10 days, 0 to 100 scale (0 no effect, 100 complete control); for pest or weed control at 125 g/ha: 125 g ai/ha; for pest or weed control at 500 g/ha: 500 g ai/ha
In short: as §1

oat, wild = assay: Test A postemergence; type: in vivo, Avena fatua; settings: Avena fatua, post-emergence, 240 h, postemergence, 10 days, 0 to 100 scale (0 no effect, 100 complete control); for pest or weed control at 500 g/ha: 500 g ai/ha, visual injury, read-out: Plant response rating, Oat, Wild; for pest or weed control at 125 g/ha: 125 g ai/ha, read-out: Oat, Wild plant response rating
In short: as §1

pigweed, palmer [4] = assay: Test A postemergence; type: in vivo, Amaranthus palmeri; settings: Amaranthus palmeri, post-emergence, 240 h, postemergence, 10 days, 0 to 100 scale (0 no effect, 100 complete control); for pest or weed control at 500 g/ha: 500 g ai/ha, visual injury, read-out: Plant response rating, Pigweed, Palmer; for pest or weed control at 125 g/ha: 125 g ai/ha, read-out: Pigweed, Palmer plant response rating
In short: as §1

ragweed [5] = assay: Test A postemergence; type: in vivo, Ambrosia artemisiifolia; settings: Ambrosia artemisiifolia, post-emergence, 240 h, postemergence, 10 days, 0 to 100 scale (0 no effect, 100 complete control); for pest or weed control at 500 g/ha: 500 g ai/ha, visual injury, read-out: Plant response rating, Ragweed; for pest or weed control at 125 g/ha: 125 g ai/ha, read-out: Ragweed plant response rating
In short: as §1

wheat = assay: Test A postemergence; type: in vivo, Triticum aestivum; settings: Triticum aestivum, post-emergence, 240 h, postemergence, 10 days, 0 to 100 scale (0 no effect, 100 complete control); for plant injury at 500 g/ha: 500 g ai/ha, visual injury, read-out: Plant response rating, Wheat; for plant injury at 125 g/ha: 125 g ai/ha, read-out: Wheat plant response rating
In short: as §1

ducksalad = assay: Test B flooded paddy test; type: in vivo, Heteranthera limosa; settings: Heteranthera limosa, 312 h, 250 g ai/ha, Flood, 13 days, 0 to 100 scale (0 no effect, 100 complete control); read-out: Plant response rating, Ducksalad
In short: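 Percent weed or crop control, judged by eye on a 0–100 scale 13 days post-treatment, reflects compound added to a 3 cm flood maintained over 2-leaf plants in the greenhouse. Missing entries are marked with a dash.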

blackgrass [6] = assay: Test A preemergence; type: in vivo, Alopecurus myosuroides; settings: Alopecurus myosuroides, pre-emergence, 240 h, read-out: Plant response rating, Blackgrass
In short: as §1

[7] = visual injury after 10 days, 0 to 100 scale, 0 is no effect, 100 is complete control
[8] = 0 to 100 scale (0 no effect, 100 complete control), 10 days
[9] = postemergence, 10 days, visual injury, 0 to 100 scale (0 no effect, 100 complete control), read-out: Plant response rating, Blackgrass
[10] = visual injury, read-out: Plant response rating, Foxtail, Giant
[11] = visual injury, read-out: Plant response rating, Goosegrass
[12] = postemergence, 10 days, 0 to 100 scale (0 no effect, 100 complete control), read-out: Blackgrass plant response rating
[13] = read-out: Foxtail, Giant plant response rating

Cc1ccc(-n2cnc(C(C)(C)C)n2)cc1C(=O)N1C[C@H](C)Oc2c(Cl)cccc21 [Compound 76, [(2S)-8-Chloro-2,3-dihydro-2-methyl-4H-1,4-benzoxazin-4-yl][5-[3-(1,1-dimethylethyl)-1H-1,2,4-triazol-1-yl]-2-methylphenyl]methanone]
pest or weed control at 125 g/ha (pigweed, palmer [1]; [7]): 100% | pest or weed control at 500 g/ha (pigweed, palmer [1]; [8]): 100% | pest or weed control at 125 g/ha (ragweed [2]; [7]): 30% | pest or weed control at 500 g/ha (ragweed [2]; [8]): 30% | pest or weed control at 125 g/ha (ryegrass, Italian; [7]): 100% | pest or weed control at 500 g/ha (ryegrass, Italian; [8]): 100% | plant injury at 125 g/ha (soybean; [7]): 50% | plant injury at 500 g/ha (soybean; [8]): 100% | pest or weed control at 125 g/ha (blackgrass [3]; [9]): 70% | pest or weed control at 500 g/ha (blackgrass [3]; Postemergence, 0 to 100 scale, read-out: Plant response rating, Blackgrass): 70% | Corn plant response rating (crop injury, 0 = no effect, 100 = complete kill) at 125 g/ha (corn; 125 g ai/ha, visual injury): 60% | Corn plant response rating (crop injury, 0 = no effect, 100 = complete kill) at 500 g/ha (corn; visual injury): 60% | pest or weed control at 125 g/ha (foxtail, giant; [10]): 90% | pest or weed control at 500 g/ha (foxtail, giant; [10]): 90% | pest or weed control at 125 g/ha (goosegrass; [11]): 50% | pest or weed control at 500 g/ha (goosegrass; [11]): 80% | pest or weed control at 500 g/ha (oat, wild): 90% | pest or weed control at 500 g/ha (pigweed, palmer [4]): 100% | pest or weed control at 500 g/ha (ragweed [5]): 60% | plant injury at 500 g/ha (wheat): 40% | pest or weed control at 250 g/ha (ducksalad): 20%

Cc1ccc(-n2ncnc2C)cc1C(=O)N1C[C@H](C)Oc2c(Cl)cccc21 (single isomer, unassigned) [Compound 126]
pest or weed control at 125 g/ha (pigweed, palmer [1]; [7]): 20% | pest or weed control at 500 g/ha (pigweed, palmer [1]; [7]): 60% | pest or weed control at 125 g/ha (ragweed [2]; [7]): 0% | pest or weed control at 500 g/ha (ragweed [2]; [7]): 0% | pest or weed control at 125 g/ha (ryegrass, Italian; [7]): 40% | pest or weed control at 500 g/ha (ryegrass, Italian; [7]): 70% | plant injury at 125 g/ha (soybean; [7]): 0% | plant injury at 500 g/ha (soybean; [7]): 50% | pest or weed control at 125 g/ha (blackgrass [3]; [12]): 0% | pest or weed control at 500 g/ha (blackgrass [3]; [9]): 40% | plant injury at 125 g/ha (corn; 125 g ai/ha): 0% | Corn plant response rating (crop injury, 0 = no effect, 100 = complete kill) at 500 g/ha (corn; visual injury): 10% | pest or weed control at 125 g/ha (foxtail, giant; [13]): 0% | pest or weed control at 500 g/ha (foxtail, giant; [10]): 70% | pest or weed control at 125 g/ha (goosegrass; read-out: Goosegrass plant response rating): 0% | pest or weed control at 500 g/ha (goosegrass; [11]): 0% | pest or weed control at 125 g/ha (oat, wild): 0% | pest or weed control at 500 g/ha (oat, wild): 50% | pest or weed control at 125 g/ha (pigweed, palmer [4]): 0% | pest or weed control at 500 g/ha (pigweed, palmer [4]): 30% | pest or weed control at 125 g/ha (ragweed [5]): 30% | pest or weed control at 500 g/ha (ragweed [5]): 50% | plant injury at 125 g/ha (wheat): 0% | plant injury at 500 g/ha (wheat): 30% | pest or weed control at 250 g/ha (ducksalad): 0%

Cc1cccc2c1O[C@@H](C)CN2C(=O)c1cccc(-n2cnc(C3COC3)n2)c1 [Compound 109, [(2S)-2,3-Dihydro-2,8-dimethyl-4H-1,4-benzoxazin-4-yl][3-[3-(3-oxetanyl)-1H-1,2,4-triazol-1-yl]phenyl]methanone]
pest or weed control at 125 g/ha (blackgrass [6]; 125 g ai/ha, visual injury after 10 days, 0 to 100 scale, 0 is no effect, 100 is complete control): 80% | pest or weed control at 500 g/ha (blackgrass [6]; 500 g ai/ha, 0 to 100 scale (0 no effect, 100 complete control), 10 days): 90% | pest or weed control at 125 g/ha (pigweed, palmer [1]; [7]): 90% | pest or weed control at 500 g/ha (pigweed, palmer [1]; [8]): 100% | pest or weed control at 125 g/ha (ragweed [2]; [7]): 40% | pest or weed control at 500 g/ha (ragweed [2]; [8]): 80% | pest or weed control at 125 g/ha (ryegrass, Italian; [7]): 80% | pest or weed control at 500 g/ha (ryegrass, Italian; [8]): 100% | plant injury at 125 g/ha (soybean; [7]): 30% | plant injury at 500 g/ha (soybean; [8]): 80% | pest or weed control at 125 g/ha (blackgrass [3]; [12]): 70% | pest or weed control at 500 g/ha (blackgrass [3]; [9]): 90% | plant injury at 125 g/ha (corn; 125 g ai/ha): 60% | Corn plant response rating (crop injury, 0 = no effect, 100 = complete kill) at 500 g/ha (corn; visual injury): 90% | pest or weed control at 125 g/ha (foxtail, giant; [13]): 70% | pest or weed control at 500 g/ha (foxtail, giant; [10]): 90% | pest or weed control at 125 g/ha (oat, wild): 80% | pest or weed control at 500 g/ha (oat, wild): 80% | pest or weed control at 125 g/ha (pigweed, palmer [4]): 60% | pest or weed control at 500 g/ha (pigweed, palmer [4]): 60% | pest or weed control at 125 g/ha (ragweed [5]): 0% | pest or weed control at 500 g/ha (ragweed [5]): 50% | plant injury at 125 g/ha (wheat): 40% | plant injury at 500 g/ha (wheat): 90% | pest or weed control at 250 g/ha (ducksalad): 75%
